One data set concerns 7S plaque-forming cells. The data set is described as follows: Antibody production to sheep erythrocytes, 7S plaque-forming cells, comparison with other agents. The settings on record: i.p.; for Spleen weight, mean ± S.E. / 7S PFC/10^6 spleen cells, mean ± S.E. / Mean body weight gain: 8 days; for Spleen weight, mean ± S.E.: control 125 ± 16; for 7S PFC/10^6 spleen cells, mean ± S.E.: control 1045 ± 202; for Mean body weight gain: control +1.0. The method, then: The effect of KH-125 on antibody production in ddY mice was examined by Cunningham and Szenberg's plaque technique (Immunology, 14, 599, 1968) and compared with other agents.
Mice were immunized by intravenous injection of washed sheep erythrocytes (4 × 10^8 cells/mouse). Administration of KH-125 was made orally for 4 consecutive days from the day of antigen injection. 19S Plaque-forming cells (PFC) were counted 4 days after immunization.
In comparative experiment, test agents were administered intraperitoneally for 8 consecutive days from one day before immunization. 7S PFC's were counted 9 days after immunization.

The conditions of data set [1]: established immunosuppressive drugs; cited from earlier work.
Data set [2] has as its system antibody formation to sheep erythrocytes. As to the kind of experiment: Screening for ability to suppress antibody formation to sheep erythrocytes in mice. Format: in vivo. On the procedure:
In an attempt to find an immunosuppressive agent having a lowered toxicity, about fifty acid hydrazides, mainly amino acid hydrazide derivatives, were synthesized and screened for their ability to suppress the antibody formation to sheep erythrocytes in mice. […] Further detailed pharmacological and toxicological studies were then performed about KH-125.

Another data set relates to mice and rats. As to the kind of experiment: Carcinogenic tests. Format: in vivo. On the procedure:
(§1) Its toxicological properties were evaluated by subacute and chronic toxicity tests in rats, by teratological studies in rats and rabbits and also by carcinogenic tests in mice and rats.

A further data set relates to 19S plaque-forming cells. As to the kind of experiment: Antibody production to sheep erythrocytes, 19S plaque-forming cells (oral administration). Format: in vivo, ddY mice. Conditions: 4 days; for Mean body weight gain: control +0.8.
Data set [3] concerns nephrotoxic nephritis. As to the kind of experiment: Nephrotoxic nephritis in rats, comparative experiment. Format: in vivo, Wistar rats. Conditions: p.o. once daily, 15 days; protein-uria, fusion index, basement membrane thickening. On the procedure:
Protein-uria was measured 18 days after nephrotoxin injection, then for electron microscopic examination the nephrotic rats were killed 3 days later. See legend of FIG. 2 for other details.
The effect of KH-125 on nephrotoxic nephritis in Wistar rats was evaluated from the following three points: (1) urinary protein measurements, (2) electron microscopic findings and (3) light microscopic findings. Nephrotic rats were prepared according to Shibata's method. (Ths Saishin-Igaku, 20, 1089, 1965).
In a comparative experiment, test agents were administered once daily: KH-125, 15 days during days 0 - 10 and 15 - 18 (p.o.); 6-mercaptopurine (6-MP), 6 days during days 0 - 5 (p.o.); cyclophosphamide, 11 days during days 0 - 10 (i.p.); and prednisolone, 11 days during days 0 - 10 (i.p.), starting from the day of nephrotoxin-injection. Urinary protein was measured 18 days after the injection of nephrotoxin, and then the animals were sacrificed 3 days later for histopathological examinations.

A further data set concerns rats, rabbits and mice. As to the kind of experiment: Subacute and chronic toxicity, teratological and carcinogenic studies (summary). Format: in vivo. Conditions: subacute, chronic. The method, then: as §1
Data set [4] deals with Wistar rats. As to the kind of experiment: Acute toxicity in rats (LD50). The class given is in vivo. Conditions: rats, male vs female. On the procedure: (§2) The acute toxicity of KH-125 was studied in both sexes of ddY mice and Wistar rats. The LD50 values were calculated by the method of Litchfield and Wilcoxon (J. Pharmacol. Exptl. Ther., 96, 99, 1949).
Data set [5] in a line: Acute toxicity in rats (LD50). The settings on record: rat, in vivo. The class given is in vivo, Wistar rats. The method, then:
as §2

A further data set concerns rats and rabbits. The data set is described as follows: Teratological studies. Format: in vivo. The method, then: as §1
Data set [6] concerns Wistar rats. As to the kind of experiment: Chronic toxicity study, 6 months oral. The class given is in vivo. The method, then: The chronic toxicity study of KH-125 was carried out in Wistar rats of both sexes. Rats were treated orally with KH-125 for 6 months at the dose levels of 0 (control), 10, 20 and 40 mg/kg/day.
The nature of data set [7]: Acute toxicity in mice (LD50). Format: in vivo, ddY mice. The settings on record: mouse, in vivo. On the procedure: as §2
Another data set deals with ddY mice. As to the kind of experiment: Acute toxicity in mice (LD50). Format: in vivo. Conditions: mice, male vs female. The method, then:
as §2

The subject of the next data set is adjuvant arthritis. The data set is described as follows: Adjuvant arthritis in rats, prophylactic experiment. The settings on record: for increase in arthritis score / swelling of adjuvant-injected and non-injected feet: once daily for 17 days.
The subject of data set [8] is nephrotoxic nephritis. The data set is described as follows: Nephrotoxic nephritis in rats, prophylactic experiment. Format: in vivo, Wistar rats.
Description: Protein-uria was measured 18 days after nephrotoxin injection, then for electron microscopic examination the rats were killed 2 days later.
Urinary protein was measured 18 days after the nephrotoxin-injection, and then the nephrotic rats were sacrificed 2 days later for histopathological examinations.
Setting [9] is: 6 months, 10, 20 and 40 mg/kg/day.
[10] abbreviates: oral, electron microscopic findings.

Entries after “also recorded” stand apart in the source; their conditions may differ.

Excerpt for 19S plaque-forming cells: Mice were immunized by intravenous injection of washed sheep erythrocytes (4 × 10^8 cells/mouse). […] 19S Plaque-forming cells (PFC) were counted 4 days after immunization.

Turning to `C[C@]12C=CC(=O)C=C1CC[C@@H]1[C@@H]2[C@@H](O)C[C@@]2(C)[C@H]1CC[C@]2(O)C(=O)CO` [prednisolone], in the data set on 7S plaque-forming cells (4 mg/kg/day), the “Spleen weight, mean ± S.E.” value is recorded as 116 ± 19 mg and the “7S PFC/10^6 spleen cells, mean ± S.E.” value is 706 ± 178 7SPFC/10^6 spleen cells.

As to `O=P1(N(CCCl)CCCl)NCCCO1` (stereo not drawn) [cyclophosphamide], in data set [1], the “teratogenic and carcinogenic effect” value is on record as “inevitably shared”. For the same molecule, in the data set with 7S plaque-forming cells (20 mg/kg/day, p < 0.05), the “Spleen weight, mean ± S.E.” value is reported as 87 ± 7 mg. Moreover, the “7S PFC/10^6 spleen cells, mean ± S.E.” value with 7S plaque-forming cells (20 mg/kg/day, p < 0.01) is reported as 61 ± 8 7SPFC/10^6 spleen cells. For the same molecule, in the data set with 7S plaque-forming cells (20 mg/kg/day), the “Mean body weight gain” value is given as “+0.2 g”.

In the case of `NNC(=O)CCNS(=O)(=O)c1ccccc1` [KH-125, N-benzenesulfonyl-β-alanine hydrazide], the “immunosuppressive activity among about fifty acid hydrazides tested” value in data set [2] (mice, antibody formation to sheep erythrocytes) is “most potent immunosuppressive activity”. The “acute toxicity among the compounds tested” value in data set [2] (screening) is given as “fairly lower acute toxicity”. For the same molecule, in the data set with mice and rats, the carcinogenic effect result is listed as “neither teratogenic nor carcinogenic effect”. Also, the “Spleen weight, mean ± S.E.” value with 19S plaque-forming cells (40 mg/kg/day, control 181 ± 8) came out at 135 ± 20 mg; in the data set on 19S plaque-forming cells (80 mg/kg/day, control 181 ± 8, p < 0.05) it was 139 ± 9 mg; in the data set on 19S plaque-forming cells (160 mg/kg/day, control 181 ± 8) it was 164 ± 14 mg; in the data set on 7S plaque-forming cells (200 mg/kg/day, p < 0.01) it was 60 ± 8 mg. Further, the “19S PFC/10^6 spleen cells, mean ± S.E.” value is 1383 ± 327 19S PFC/10^6 spleen cells in the data set with 19S plaque-forming cells (40 mg/kg/day, control 1905 ± 267); 368 ± 124 19S PFC/10^6 spleen cells with 19S plaque-forming cells (80 mg/kg/day, control 1905 ± 267, p < 0.01); 329 ± 46 19S PFC/10^6 spleen cells in the data set with 19S plaque-forming cells (160 mg/kg/day, control 1905 ± 267, p < 0.01). In addition, the “Mean body weight gain” value is “+1.0 g” in the data set on 19S plaque-forming cells (40 mg/kg/day), -0.8 g in the data set on 19S plaque-forming cells (80 mg/kg/day), -0.5 g in the data set with 19S plaque-forming cells (160 mg/kg/day) and -4.5 g with 7S plaque-forming cells (200 mg/kg/day). In addition, the “appearance of 19S PFC” value with 19S plaque-forming cells (40-160 mg/kg/day) is “dose-dependently suppressed”. For the same molecule, the “suppression of nephrotoxic nephritis, compared with 6-mercaptopurine, cyclophosphamide and prednisolone” value with nephrotoxic nephritis [3] is “most effectively suppressed”. Besides, the “toxicity compared with well-known immunosuppressive agents” value in the data set on rats, rabbits and mice was “considerably lower toxicity than well-known immunosuppressive agents”. The “sex difference concerning the acute toxicity” value with Wistar rats [4] and with ddY mice was “No sex difference” in each case. Besides, the LD50 in data set [5] (ip, female rats) is 2580 mg/kg; in [5] (ip, male rats), 2150 mg/kg; in data set [5] (po, female rats) it was > 4000 mg/kg; in [5] (po, male rats) it was > 4000 mg/kg; in data set [5] (sc, female rats), > 4000 mg/kg; in [5] (sc, male rats) it was > 4000 mg/kg. Further, the LD50 in data set [7] (ip, female mice) turned out to be 1410 mg/kg; in data set [7] (ip, male mice) it was 1230 mg/kg; in [7] (po, female mice), 1570 mg/kg; in data set [7] (po, male mice), 1520 mg/kg; in data set [7] (sc, female mice), 1440 mg/kg; in data set [7] (sc, male mice) it was 1150 mg/kg. Besides, the “7S PFC/10^6 spleen cells, mean ± S.E.” value in the data set with 7S plaque-forming cells (200 mg/kg/day, p < 0.01) is recorded as 233 ± 63 7SPFC/10^6 spleen cells. For the same molecule, in the data set with 7S plaque-forming cells (8 consecutive days), the “suppressive effect on the appearance of 7S PFC, compared with other agents” value is “higher than that of prednisolone or 6-mercaptopurine; also recorded: less effective than cyclophosphamide”. In the data set on rats and rabbits, the teratogenic effect entry is “neither teratogenic nor carcinogenic effect”. The body weight gain entry with Wistar rats [6] (6 months, 40 mg/kg/day) was “slightly inhibited”. In the data set with Wistar rats [6] (setting [9]), the “erythrocyte count and hemoglobin” value is given as “dose-dependent decrease”. The “general symptoms, food intake, urinalysis, and fractionation of serum protein” value with Wistar rats [6] (setting [9]) is “No significant effects”. The histopathological examinations entry in the data set on Wistar rats [6] (setting [9]) was “No toxic effects which could be attributed to the drug were detected”. Besides, the “serum enzyme activities, S-GOT and S-GPT” value with Wistar rats [6] (setting [9]) is recorded as “slight but dose-dependent increases”. Moreover, the survival entry in the data set with Wistar rats [6] (setting [9]) is “All rats survived”. Also, the “rebound of foot swelling after withdrawal” value in the data set on adjuvant arthritis (after withdrawal) is recorded as “not prominent”. In the data set on adjuvant arthritis (oral, as high as 80 mg/kg/day, 17 days), the “survival during the experiment” value was “survived throughout the test period”. Moreover, the “increase in arthritis score” value in the data set on adjuvant arthritis (oral) is on record as “dose-dependently suppressed”. In addition, the “swelling of adjuvant-injected and non-injected feet” value with adjuvant arthritis (oral) was “dose-dependently suppressed”. For the same molecule, the “suppression of adjuvant arthritis (summary)” value in the data set with adjuvant arthritis (rats) was “suppress adjuvant arthritis”. Moreover, the “safety margin (maximal tolerated dose in repeated administration versus effective dose) relative to 6-mercaptopurine” value in the data set on adjuvant arthritis (versus 6-mercaptopurine, adjuvant arthritis) is reported as “about 3 times”. The light microscopic findings result in the data set on nephrotoxic nephritis [8] (oral) is given as “good improvement of nephritis”. Moreover, the “fusion index of epithelial foot processes” value with nephrotoxic nephritis [8] (setting [10]) is listed as “improved”. For the same molecule, in the data set on nephrotoxic nephritis [8] (setting [10]), the “thickening of glomerular basement membrane” value is given as “suppressed”. Further, the protein-uria entry in the data set with nephrotoxic nephritis [8] (oral, twice a day, 18 days after nephrotoxin injection) is “decreased dose-dependently”. In addition, the “suppression of experimental nephrotoxic nephritis (summary)” value in the data set with nephrotoxic nephritis [8] (rats) is listed as “suppress adjuvant arthritis as well as experimental nephrotoxic nephritis”.

As for `Sc1ncnc2nc[nH]c12` [6-mercaptopurine, reference compound], in data set [1], the “teratogenic and carcinogenic effect” value is listed as “inevitably shared”. In addition, the “Spleen weight, mean ± S.E.” value in the data set on 7S plaque-forming cells (30 mg/kg/day) turned out to be 103 ± 12 mg. For the same molecule, the “7S PFC/10^6 spleen cells, mean ± S.E.” value in the data set with 7S plaque-forming cells (30 mg/kg/day, p < 0.05) is given as 385 ± 83 7SPFC/10^6 spleen cells. Besides, the “rats died during the experiment” value with adjuvant arthritis (oral, 30 mg/kg/day, 17 days) is listed as “Three of 7”. In the data set on adjuvant arthritis (oral), the “increase in arthritis score” value is listed as “dose-dependently suppressed”; the “swelling of adjuvant-injected and non-injected feet” value was “dose-dependently suppressed”.

For orientation: LD50 means the dose at which mortality reaches 50%. High values mean lower toxicity, low ones greater toxicity.
